In one data set the target is T1, RORγ (Homo sapiens, UniProt P51449).
T1 construct: expressed in transfected cells; host or cells: HEK 293 cells, transiently cotransfected with pGL4.3 luc2P/GAL4UAS/Hygro reporter
T1 sequence (P51449 269-508 limits assumed): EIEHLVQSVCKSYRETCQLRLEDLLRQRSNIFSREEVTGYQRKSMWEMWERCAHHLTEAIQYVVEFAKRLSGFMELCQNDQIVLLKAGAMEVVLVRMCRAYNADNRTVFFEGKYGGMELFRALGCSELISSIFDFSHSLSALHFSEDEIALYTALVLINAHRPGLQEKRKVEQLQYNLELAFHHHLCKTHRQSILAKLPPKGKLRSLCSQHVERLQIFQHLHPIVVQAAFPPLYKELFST
Briefly: RORγ Reporter Gene Assay (RGA), luciferase transactivation in transiently transfected HEK 293 cells. To be noted: HEK 293 cells cotransfected with pGL4.3 luc2P/GAL4UAS and pBIND Gal4DBD hRORC LBD; 20-24 h incubation. In kind it is cell-based.

The nature of data set [1]: Human liver microsome (HLM) metabolic stability assay. In kind it is in vitro ADME. To be noted: human liver microsomes, 1 uM compound, 37° C., 60 min; % hepatic blood flow. The procedure, abridged: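 Parent remaining measured by LC/MS/MS (ESI, MRM) at 5, 15, 30 and 60 min relative to 0 min, after acetonitrile quench. Incubation: 1 uM compound, human liver microsomes, NADPH-started, 37° C, 60 min total, single replicate. Half-life from slope of ln % remaining versus time; clearance parameters derived.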

These results are taken from US10450314B2, “Pteridine derivatives as modulators of ROR gamma” (Boehringer Ingelheim International GmbH, priority 2015, dated 2019).

Some results are limits rather than exact numbers.

For the molecule `CC[C@@H](C)n1c(=O)c(NCc2ccc(S(=N)(=O)CC)cc2)nc2c(C)nc(-c3c(OC)ncnc3C3CC3)nc21` (single isomer, unassigned) [Example 29b], the IC50 against RORγ came out at 170 nM. For the same molecule, the “HLM (% Qh)” value in data set [1] was determined as 48 % Qh.
For `CC[C@@H](C)n1c(=O)c(NCc2ccc(S(=O)(=O)CC)cn2)nc2c(CO)nc(-c3c(C)ncnc3C3CC3)nc21` [Example 51], in that order: 230 nM and less than 24 % Qh.
For `Cc1ncnc(C2CC2)c1-c1nc(C)c2nc(NCc3ccc(S(C)(=N)=O)cc3)c(=O)n([C@@H](C)C(F)(F)F)c2n1` (single isomer, unassigned) [Example 91a], in that order: 295 nM and less than 24 % Qh.
The like results for `CCS(=N)(=O)c1ccc(CNc2nc3c(C)nc(-c4c(C)ncnc4C4CC4)nc3n([C@@H](C)C3CC3)c2=O)cc1` (single isomer, unassigned) [Example 36a] were, in that order, 260 nM and less than 24 % Qh.
For the molecule `CC[C@@H](C)n1c(=O)c(NCc2ccc(S(=O)(=O)CC)nc2)nc2c(C)nc(-c3c(OC)ncnc3C3CC3)nc21` [Example 3], on RORγ, the IC50 is 88 nM. Moreover, in data set [1], the “HLM (% Qh)” value is listed as less than 24 % Qh.
The like results for `CC[C@H](C)n1c(=O)c(NCc2ccc(S(=O)(=O)CC)cn2)nc2c(C)nc(-c3c(OC)ncnc3C3CC3)nc21` [Example 58] were, in that order, 71 nM and less than 24 % Qh.
The like results for `Cc1ncnc(C2CC2)c1-c1nc(C)c2nc(NCc3ccc(S(C)(=N)=O)cn3)c(=O)n([C@@H](C)C3CC3)c2n1` (single isomer, unassigned) [Example 43a] were, in that order, 730 nM and less than 24 % Qh.
The like results for `Cc1ncnc(C2CC2)c1-c1nc(C)c2nc(NCc3ccc(S(C)(=N)=O)cn3)c(=O)n([C@@H](C)C3CC3)c2n1` (single isomer, unassigned) [Example 43b] were, in that order, 400 nM and less than 24 % Qh.
For the molecule `CC[C@@H](C)n1c(=O)c(NCc2ccc(S(=O)(=O)CC)cn2)nc2c(CO)nc(-c3c(OC)ncnc3C3CC3)nc21` [Example 1], the IC50 on RORγ came to 200 nM. The “HLM (% Qh)” value in data set [1] was less than 24 % Qh.
For `CC[C@@H](C)n1c(=O)c(NCc2cnc(S(C)(=O)=O)cn2)nc2c(C)nc(-c3c(C)ncnc3C3CC3)nc21` [Example 55], in that order: 265 nM and less than 24 % Qh.
